Test results published in US10851082B2, “Substituted aromatic n-heterocyclic compounds as inhibitors of mitogen-activated protein kinase interacting kinase 1 (MNK1) and 2 (MNK2)” (Northwestern University, priority 2015, dated 2020).
pIC50: −log10 of the molar value. Like-named read-outs stand apart in the source and are kept apart here.

What was measured:
Mnk1 = Mnk1 (Homo sapiens (Human), UniProt Q9BUB5); assay: Mnk1 kinase inhibition, ADP-Glo ADP monitoring assay; assay type: biochemical; details: read-out: Mnk1 inhibition IC50 (+,++,+++)
Description: (§1) The synthesized compounds then were tested for inhibition of the kinase activity (IC50) of Mnk1 and/or Mnk2 using the ADP monitoring assay for kinases described in Zegzouti, H.; Zdanovskaia, M.; Hsiao, K.; Goueli, S. A., ADP-Glo: A Bioluminescent and homogeneous ADP monitoring assay for kinases.

Mnk2 = Mnk2 (Homo sapiens (Human), UniProt Q9HBH9); assay: Mnk2 kinase inhibition, ADP-Glo ADP monitoring assay; assay type: biochemical
Description: as §1

[1] = ADP-Glo kinase assay, read-out: Mnk2 inhibition IC50 (+,++,+++)

Mnk2, sequence (Q9HBH9 whole entry): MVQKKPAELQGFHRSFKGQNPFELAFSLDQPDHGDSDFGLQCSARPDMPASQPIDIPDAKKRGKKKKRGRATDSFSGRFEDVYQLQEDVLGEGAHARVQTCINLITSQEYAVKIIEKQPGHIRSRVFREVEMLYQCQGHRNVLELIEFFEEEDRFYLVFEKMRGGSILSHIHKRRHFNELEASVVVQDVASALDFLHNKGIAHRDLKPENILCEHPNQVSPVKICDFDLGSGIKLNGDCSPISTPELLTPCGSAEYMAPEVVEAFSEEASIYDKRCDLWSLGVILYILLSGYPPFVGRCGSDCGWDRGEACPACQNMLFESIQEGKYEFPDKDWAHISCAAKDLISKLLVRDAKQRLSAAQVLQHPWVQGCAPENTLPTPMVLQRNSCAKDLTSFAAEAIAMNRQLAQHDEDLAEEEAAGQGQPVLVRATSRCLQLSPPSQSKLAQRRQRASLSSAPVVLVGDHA
Mnk1, sequence (Q9BUB5 whole entry): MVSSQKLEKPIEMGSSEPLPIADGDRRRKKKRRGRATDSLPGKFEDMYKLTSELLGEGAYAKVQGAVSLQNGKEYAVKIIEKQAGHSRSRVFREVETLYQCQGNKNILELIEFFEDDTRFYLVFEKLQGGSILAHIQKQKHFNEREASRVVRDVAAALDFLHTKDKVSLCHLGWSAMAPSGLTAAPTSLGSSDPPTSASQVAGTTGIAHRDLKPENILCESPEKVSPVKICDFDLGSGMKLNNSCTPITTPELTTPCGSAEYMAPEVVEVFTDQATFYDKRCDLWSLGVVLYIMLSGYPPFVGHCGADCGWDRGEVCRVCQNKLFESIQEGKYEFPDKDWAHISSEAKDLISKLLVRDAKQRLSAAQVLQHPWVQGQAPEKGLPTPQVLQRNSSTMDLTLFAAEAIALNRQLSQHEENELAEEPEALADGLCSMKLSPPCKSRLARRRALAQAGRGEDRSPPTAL

Row | pIC50 (Mnk1) | pIC50 (Mnk2) | pIC50 (Mnk2; [1]) | Structure (SMILES)
1 | 5.00 to 6.00 | 5.00 to 6.00 | – | O=C1CCN(c2ncc(Cl)c(-n3cnc4ccccc43)n2)C1 [NUCC-0201051]
2 | > 6.00 | – | > 6.00 | N[C@H]1C[C@H](Oc2ncc(Cl)c(-n3cnc4ccccc43)n2)C1 [NUCC-0201052]
3 | 5.00 to 6.00 | 5.00 to 6.00 | – | Clc1cnc(NC2C3CC2C3)nc1-n1cnc2ccccc21 (stereo not drawn) [NUCC-0201136]
4 | 5.00 to 6.00 | – | > 6.00 | CC(C)(COc1ncc(Cl)c(-n2cnc3ccccc32)n1)c1ccncc1 [NUCC-0201593, 1-(5-chloro-2-(2-methyl-2-(pyridin-4-yl)propoxy)pyrimidin-4-yl)-1H-benzo[d]imidazole]
5 | > 6.00 | – | > 6.00 | Fc1ccc2c(ncn2-c2nc(OCCc3ccccn3)ncc2Cl)c1F [NUCC-0201662]
6 | > 6.00 | 5.00 to 6.00 | – | NC1CC(Oc2ncc(C(F)(F)F)c(-n3cnc4ccccc43)n2)C1 (stereo not drawn) [NUCC-0201663]
7 | 5.00 to 6.00 | 5.00 to 6.00 | – | Clc1cnc(CCc2ccccn2)nc1-n1cnc2ccccc21 [NUCC-0201706, 1-(5-chloro-2-(2-(pyridin-2-yl)ethyl)pyrimidin-4-yl)-1H-benzo[d]imidazole]
8 | 5.00 to 6.00 | – | > 6.00 | O=C(O)C1CC(Oc2ncc(Cl)c(-n3cnc4ccccc43)n2)C1 (stereo not drawn) [NUCC-0201891]
9 | > 6.00 | – | > 6.00 | Nc1ccc(CCOc2ncc(Cl)c(-n3cnc4ccccc43)n2)cc1 [NUCC-0201892]
10 | > 6.00 | – | > 6.00 | NC1CC(Oc2ncc(Br)c(-n3cnc4ccccc43)n2)C1 (stereo not drawn) [NUCC-0201893]
11 | > 6.00 | – | > 6.00 | FC(F)(F)c1cnc(OC2CCNC2)nc1-n1cnc2ccccc21 (stereo not drawn) [NUCC-0201897]
12 | 5.00 to 6.00 | – | > 6.00 | NC(=O)c1cccc(-c2cnc(OC3CC(N)C3)nc2-n2cnc3ccccc32)c1 (stereo not drawn) [NUCC-0201899]
13 | 5.00 to 6.00 | – | > 6.00 | NC(=O)c1cccc(-c2cnc(OC3CCNC3)nc2-n2cnc3ccccc32)c1 (stereo not drawn) [NUCC-0201901]
14 | > 6.00 | – | > 6.00 | c1ccc2c(c1)ncn2-c1nc(OC2CCNC2)ncc1-c1ccsc1 (stereo not drawn) [NUCC-0201902]
15 | > 6.00 | – | > 6.00 | Fc1cccc(CCOc2ncc(Cl)c(-n3cnc4ccccc43)n2)c1 [NUCC-0201906]
16 | > 6.00 | – | > 6.00 | N#Cc1cnc(-n2cnc3ccccc32)nc1OCCc1ccnc(F)c1 [NUCC-0201907]
17 | 5.00 to 6.00 | 5.00 to 6.00 | – | CC(C)(COc1nc(-n2cnc3ccccc32)ncc1C#N)c1ccnc(F)c1 [NUCC-0201908]
18 | > 6.00 | – | > 6.00 | CC(C)(COc1ncc(Cl)c(-n2cnc3ccccc32)n1)c1ccnc(F)c1 [NUCC-0201914]

Continued, molecule first:

Row | Structure (SMILES) | pIC50 (Mnk1) | pIC50 (Mnk2) | pIC50 (Mnk2; [1])
19 | N#Cc1cnc(NC2C3CC2C3)nc1-n1cnc2ccccc21 (stereo not drawn) [NUCC-0201137, 4-(1H-benzo[d]imidazol-1-yl)-2-(bicyclo[1.1.1]pentan-2-ylamino)pyrimidine-5-carbonitrile] | > 6.00 | – | > 6.00
20 | N#Cc1cn(-c2nc(OC3CC(N)C3)ncc2Cl)cn1 (stereo not drawn) [NUCC-0201246] | 5.00 to 6.00 | 5.00 to 6.00 | –
21 | NC1CC(Oc2ncc(Cl)c(-n3cnc(-c4ccc(Cl)c(C(F)(F)F)c4)c3)n2)C1 (stereo not drawn) [NUCC-0201247, 3-((5-chloro-4-(4-(4-chloro-3-(trifluoromethyl)phenyl)-1H-imidazol-1-yl)pyrimidin-2-yl)oxy)cyclobutanamine] | 5.00 to 6.00 | 5.00 to 6.00 | –
22 | N#Cc1cnc(OC2CC(N)C2)nc1-n1cnc(-c2ccc(Cl)c(Cl)c2)c1 (stereo not drawn) [NUCC-0201248] | 5.00 to 6.00 | – | > 6.00
23 | NC1CC(Oc2ncc(Cl)c(-n3cnc(C(F)(F)F)c3)n2)C1 (stereo not drawn) [NUCC-0201664] | > 6.00 | 5.00 to 6.00 | –
24 | Fc1cnc(NC23CC(C2)C3)nc1-n1cnc2ccccc21 [NUCC-0201887] | > 6.00 | – | > 6.00
25 | FC(F)(F)c1cnc(NC23CC(C2)C3)nc1-n1cnc2ccccc21 [NUCC-0201888] | > 6.00 | – | > 6.00
26 | CCOC(=O)c1cnc(NC2CNC(=O)C2)nc1-n1cnc2ccccc21 (stereo not drawn) [NUCC-0201889] | 5.00 to 6.00 | 5.00 to 6.00 | –
27 | O=C1CC(Nc2ncc(C(F)(F)F)c(-n3cnc4ccccc43)n2)CN1 (stereo not drawn) [NUCC-0201890] | > 6.00 | – | > 6.00
28 | NC1CC(Oc2nc(-n3cnc4ccccc43)c3ccccc3n2)C1 (stereo not drawn) [NUCC-0201894] | > 6.00 | – | > 6.00
29 | Brc1cnc(OC2CCNC2)nc1-n1cnc2ccccc21 (stereo not drawn) [NUCC-0201895] | > 6.00 | – | > 6.00
30 | c1ccc2c(c1)ncn2-c1ccnc(OC2CCNC2)n1 (stereo not drawn) [NUCC-0201896] | > 6.00 | – | > 6.00
31 | NC1CC(Oc2ncc(C3CC3)c(-n3cnc4ccccc43)n2)C1 (stereo not drawn) [NUCC-0201900] | > 6.00 | – | > 6.00
32 | NC(=O)c1ccc(-c2cnc(OC3CCNC3)nc2-n2cnc3ccccc32)cc1 (stereo not drawn) [NUCC-0201903] | > 6.00 | – | > 6.00
33 | N#Cc1cnc(NC2CNC(=O)C2)nc1-n1cnc2ccccc21 (stereo not drawn) [NUCC-0201905] | > 6.00 | – | > 6.00
